In US20240189311A1, “Combination Therapy of Obicetrapib and Ezetimibe for Use in Statin Intolerant Patients Suffering from Hyperlipidemia or Mixed Dyslipidaemia” (NEWAMSTERDAM PHARMA B.V., priority 2021, published 2024):

Columns and labels:
[1] = system: low-density lipoprotein cholesterol (LDL-C); assay: Phase 2 study of obicetrapib and ezetimibe in mild dyslipidaemia: LDL-C by Friedewald formula; type: in vivo, human
From the text: (§1) Study drugs will be administered by the participant orally and once daily on Days 1 through 57. Study drugs should be administered at approximately the same time each morning, with food. On days with visits scheduled, study drugs should be administered with food following all fasted blood samples. If a participant forgets to take study drug on a given day, they should take the next dose as normal and should not take a double dose to make up for the forgotten dose.
(§2) Up to 2 weeks after the Screening Visit, participants will return to the site on Day 1 (Visit 2) to be randomized and begin treatment. Approximately 100 eligible participants (25 participants per treatment group) will be randomized in a 1:1:1:1 ratio to 1 of the following treatment groups: • Combination therapy: 5 mg obicetrapib+10 mg ezetimibe; • Obicetrapib monotherapy: 5 mg obicetrapib+placebo ezetimibe; • Ezetimibe monotherapy: placebo obicetrapib+10 mg ezetimibe; or • Placebo: placebo obicetrapib+placebo ezetimibe.
LDL-C level was collected using the following 2 approaches: • 1. At each scheduled visit, LDL-C level was calculated using the Friedewald formula; and • 2. In addition, at baseline (Day 1) and at the end of the 8-week Treatment Period (Day 57), LDL-C was measured for all participants by preparative ultracentrifugation (PUC). Primary Efficacy Endpoint Primary analysis
The primary efficacy analysis of the percent change from Day 1 to Day 57 in LDL-C was performed using a mixed model for repeated measures (MMRM) approach. The analysis included fixed effects for treatment, visit, and treatment-by-visit interaction, along with a covariate of the baseline value as a continuous covariate. Randomization was stratified by categories of LDL-C value (<3.5 mmol/L [<135 mg/dL] or >3.5 mmol/L [≥135 mg/dL]) only to ensure similar distribution of LDL-C across all treatment groups; however, the MMRM model included the original scale of the LDL-C value as a continuous covariate. The Restricted Maximum Likelihood estimation approach was used with an unstructured covariance matrix. The least squares (LS) means, standard errors, and 2-sided 95% confidence intervals (CIs) for each treatment group, for the pairwise comparisons of the combination therapy, obicetrapib monotherapy, and ezetimibe monotherapy to placebo, and for the pairwise comparisons of combination therapy and obicetrapib monotherapy versus ezetimibe monotherapy are provided. The treatment comparison was performed using a 2-sided test at the α=0.05 level of significance.
(§3) Similar MMRM models were used for the exploratory efficacy endpoints. The proportion of participants at Day 57 that achieved LDL-C<2.6 mmol/L (<100 mg/dL), LDL-C<1.8 mmol/L (<70 mg/dL), and LDL-C<1.3 mmol/L (<50 mg/dL) were examined through Logistic Regression Models for binary variables with covariates of the treatment groups and the baseline variable.
This study was a placebo-controlled, double-blind, randomized Phase 2 study in participants with mild dyslipidemia to evaluate the efficacy, safety, and tolerability of obicetrapib and ezetimibe combination therapy. The primary efficacy endpoint was percent change from Day 1 to Day 57 in LDL-C for the obicetrapib 5 mg+ezetimibe 10 mg group compared to the placebo group.

apolipoprotein B (ApoB) = assay: Phase 2 study of obicetrapib and ezetimibe in mild dyslipidaemia: ApoB; type: in vivo, human
From the text: as §1, §2
Similar MMRM models were developed to examine the percent change from Day 1 to Day 57 in LDL-C (for other pairwise treatment group comparisons beside the analysis specified for the primary efficacy endpoint, using the Friedewald formula) or ApoB. In order to maintain the overall Type 1 error rate, the secondary efficacy endpoints were tested sequentially at the 0.05 significance level according to the pre-specified order of hierarchy. This applied to the following analyses: • Percent change from Day 1 to Day 57 in LDL-C for the obicetrapib monotherapy group compared to the placebo group; • Percent change from Day 1 to Day 57 in ApoB for the combination therapy group compared to the placebo group; • Percent change from Day 1 to Day 57 in ApoB for the obicetrapib monotherapy group compared to the placebo group; • Percent change from Day 1 to Day 57 in LDL-C for combination therapy group compared to the ezetimibe monotherapy group; • Percent change from Day 1 to Day 57 in LDL-C for the obicetrapib monotherapy group compared to the ezetimibe monotherapy group; • Percent change from Day 1 to Day 57 in LDL-C, for the ezetimibe monotherapy group compared to the placebo group; and • Percent change from Day 1 to Day 57 in ApoB for the combination therapy group compared to the ezetimibe monotherapy group.

[2] = system: non-high-density lipoprotein cholesterol (non-HDL-C); assay: Phase 2 study: non-HDL-C; type: in vivo, human; conditions: Day 57
Procedure: as §2, §3

[3] = system: high-density lipoprotein cholesterol (HDL-C); assay: Phase 2 study: HDL-C; type: in vivo, human; conditions: Day 57
Procedure: as §2, §3

apolipoprotein E (ApoE) = assay: Phase 2 study: ApoE; type: in vivo, human; conditions: Day 57
Procedure: as §2, §3

[4] = Phase 2 study: safety and tolerability (adverse events); type: in vivo, human
From the text: The Safety Population included all participants who received at least 1 dose of any study drug. Treatment classification was based on the actual treatment received. The Safety Population was the primary population used for the safety analyses.
The Safety Population was the primary population for the safety analyses. All safety endpoints are summarized descriptively. No statistical inference was applied to the safety endpoints.
AEs were categorized by primary system organ class (SOC) and preferred term (PT) as coded using the Medical Dictionary for Regulatory Activities (version 23.0) category designations. Summaries of AEs, including the count and percentage of participants who experienced an AE, are provided.
An overview of treatment-emergent adverse events (TEAEs) is provided, including counts and percentages of participants (and event counts).
Listings are presented specifically for TEAEs, treatment-emergent serious adverse events (TESAEs), and TEAEs leading to discontinuation of study drug.

[5] = Phase 2 study: pharmacokinetics of obicetrapib; type: in vivo, human; conditions: by 8 weeks after long-term daily dosing
From the text: Plasma obicetrapib concentrations will be summarized with descriptive statistics based on the PK Population. Exploration of any relationships with obicetrapib exposure will be performed, as appropriate.
The PK Population included all participants in the mITT Population who had sufficient blood samples collected for valid estimation of PK parameters.

LDL-C = conditions: cited from earlier work
HDL-C = conditions: cited from earlier work
CETP = target: T1, CETP (Homo sapiens, UniProt P11597); conditions: 5 mg obicetrapib dose; healthy subjects and patients; multiple dose; cited from earlier work
T1 construct: from tissue; host or cells: plasma of the dosed clinical-study subjects (endogenous CETP)
T1 sequence (P11597 18-493): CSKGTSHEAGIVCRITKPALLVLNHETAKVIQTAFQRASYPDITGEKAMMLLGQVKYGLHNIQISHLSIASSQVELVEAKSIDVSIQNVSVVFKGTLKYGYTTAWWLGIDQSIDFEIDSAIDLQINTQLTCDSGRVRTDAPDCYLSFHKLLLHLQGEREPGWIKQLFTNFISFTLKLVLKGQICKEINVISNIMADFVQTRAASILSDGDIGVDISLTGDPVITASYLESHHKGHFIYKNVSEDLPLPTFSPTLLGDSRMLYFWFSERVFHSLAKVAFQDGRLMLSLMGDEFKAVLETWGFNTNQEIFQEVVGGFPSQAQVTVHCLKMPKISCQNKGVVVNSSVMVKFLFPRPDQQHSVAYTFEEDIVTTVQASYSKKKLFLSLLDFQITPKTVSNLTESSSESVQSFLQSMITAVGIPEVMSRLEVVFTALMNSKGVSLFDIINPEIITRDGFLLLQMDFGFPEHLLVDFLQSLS

[6] = mITT population, mild dyslipidaemia, oral once daily, Day 57
[7] = mITT population, oral once daily, baseline to Day 57
[8] = previous multiple-dose clinical studies, 5 mg obicetrapib dose, healthy subjects and patients

Elimination of obicetrapib (in words) [5]: almost complete elimination
SMILES: CCOC(=O)N1c2ccc(C(F)(F)F)cc2[C@@H](N(Cc2cc(C(F)(F)F)cc(C(F)(F)F)c2)c2ncc(OCCCC(=O)O)cn2)C[C@H]1C [Obicetrapib 5 mg]
Number of participants that achieved LDL-C<70 mg/dL by Friedewald formula ([1]; Day 57): 7 participants
Number of participants that achieved LDL-C<100 mg/dL by Friedewald formula ([1]; Day 57): 16 participants
Percentage of participants that achieved LDL-C<70 mg/dL by Friedewald formula ([1]; Day 57): 25.0%
Percentage of participants that achieved LDL-C<100 mg/dL by Friedewald formula ([1]; Day 57): 57.1%
LDL-C by Friedewald formula at Day 57, mean [1, 6]: 87.0 mg/dL
LDL-C by Friedewald formula at Day 57, median [1, 6]: 87.0 mg/dL
Change from baseline to Day 57 in LDL-C by Friedewald formula, mean [1, 7]: -39.5 mg/dL
Change from baseline to Day 57 in LDL-C by Friedewald formula, median [1, 7]: -41.0 mg/dL
Percent change from baseline to Day 57 in LDL-C by Friedewald formula, mean [1, 7]: −31.88%
Percent change from baseline to Day 57 in LDL-C by Friedewald formula, median [1, 7]: −34.40%
Percent change from baseline in ApoB compared to placebo (in words) (apolipoprotein B (ApoB); Day 57, compared to placebo): significant reductions
ApoB at Day 57, mean (apolipoprotein B (ApoB); [6]): 78.3 mg/dL
ApoB at Day 57, median (apolipoprotein B (ApoB); [6]): 75.0 mg/dL
Change from baseline to Day 57 in ApoB, mean (apolipoprotein B (ApoB); [7]): -22.6 mg/dL
Change from baseline to Day 57 in ApoB, median (apolipoprotein B (ApoB); [7]): -24.0 mg/dL
Percent change from baseline to Day 57 in ApoB, mean (apolipoprotein B (ApoB); [7]): −22.15%
Percent change from baseline to Day 57 in ApoB, median (apolipoprotein B (ApoB); [7]): −23.50%
Percent change from baseline in non-HDL-C compared to placebo (in words) [2]: significant reductions
Percent change from baseline in HDL-C compared to placebo (in words) [3]: significant increases
Percent change from baseline in ApoE compared to placebo (in words) (apolipoprotein E (ApoE)): significant increases
Safety and tolerability (in words) ([4]; 8 weeks of treatment, oral once daily): generally safe and well tolerated
Participants who experienced at least 1 TEAE, number ([4]; Safety Population): 4 participants
Participants who experienced at least 1 TEAE, percentage ([4]; Safety Population): 14.3%
Participants who experienced at least 1 study drug-related TEAE, number ([4]; Safety Population): 1 participants
Participants who experienced at least 1 study drug-related TEAE, percentage ([4]; Safety Population): 3.6%
Participants with a TEAE with a maximum severity of moderate, number ([4]; Safety Population): 1 participants
Participants with a TEAE with a maximum severity of moderate, percentage ([4]; Safety Population): 3.6%
Effect on LDL cholesterol concentrations (in words) (LDL-C; Phase II trial TULIP, 10 mg and 5 mg obicetrapib as monotherapy): able to reduce LDL cholesterol concentrations
Effect on LDL-C levels (in words) (LDL-C; [8]): decreased
Effect on HDL cholesterol concentration (in words) (HDL-C; Phase II trial TULIP, mono-therapy and in combination with statins): increased considerably
Effect on HDL-C levels (in words) (HDL-C; [8]): increased
CETP activity and concentrations (in words) (CETP): effectively reduced
